One may read the inhibition as the percentage by which the read-out fell short of the control. By IC50 is commonly meant the concentration that inhibits the measured activity by half. The low end stands for greater potency in that assay, the high end for weaker potency in that assay. The term Kd denotes the free concentration of one partner at which half of the binding sites on the other are occupied at equilibrium, for simple one-to-one binding. A high value points to weaker binding. As usually defined, the koff is the rate constant with which the complex falls apart. One may read the kon as the second-order rate constant of association. Read a low kon as slow association.

In one experiment the target is T1, hKv1.3 (Homo sapiens, UniProt P22001).
T1 construct: peripheral blood mononuclear cells (PBMCs) were isolated from the healthy donor’s blood; endogenous in cells
T1 sequence (P22001 whole entry): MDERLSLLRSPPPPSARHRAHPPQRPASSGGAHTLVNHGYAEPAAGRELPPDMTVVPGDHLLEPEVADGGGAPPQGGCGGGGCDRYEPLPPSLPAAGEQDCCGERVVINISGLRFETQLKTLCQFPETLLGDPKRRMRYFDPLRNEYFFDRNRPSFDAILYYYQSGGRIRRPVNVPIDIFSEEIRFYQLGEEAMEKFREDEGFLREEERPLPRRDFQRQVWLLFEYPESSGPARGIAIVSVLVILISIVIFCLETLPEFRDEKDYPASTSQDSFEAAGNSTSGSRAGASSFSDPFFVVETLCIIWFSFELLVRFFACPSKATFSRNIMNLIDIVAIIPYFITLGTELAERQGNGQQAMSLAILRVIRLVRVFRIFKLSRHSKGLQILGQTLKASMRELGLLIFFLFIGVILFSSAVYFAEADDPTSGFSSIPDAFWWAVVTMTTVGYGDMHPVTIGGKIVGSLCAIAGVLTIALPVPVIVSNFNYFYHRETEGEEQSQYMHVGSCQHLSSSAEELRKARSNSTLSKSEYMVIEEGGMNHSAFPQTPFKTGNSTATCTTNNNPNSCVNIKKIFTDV
The experiment in a line: cell-based. The format is cell-based. The source says:
Therefore, we aimed to investigate the effects of Cvill6 and Cvill7 on voltage-gated K^+ ion channels. Among the tested ion channels there were four members from the Shaker-related human Kv1 family, hKv1.1, hKv1.2, hKv1.3, and hKv1.5 (Figure 3A–E), and one member of the human ether-a-go-go-related (hERG) cardiac K^+ channel hKv11.1 (hERG1, Figure 3F). For current recordings, Kv1.1, Kv1.2, and Kv1.5 were transiently expressed in CHO cells while for Kv11.1 a stable HEK293 cell line was used. To record Kv1.3 currents human peripheral T lymphocytes were activated with Phytohemagglutinin A (PHA) to boost Kv1.3 expression and Ca^2+-free intracellular solution to prevent the KCa3.1 channel opening. […] Appropriate voltage protocols were applied to record the K^+ currents from voltage-clamped cells in whole-cell configurations. Toxins were freshly dissolved in the bath solution supplemented with 0.1 mg/mL BSA and applied to the patched cells via a gravity-fed micro-perfusion system with an approximate flow rate of 200 µL/min.
To avoid toxin adsorption onto the plastic surfaces of the perfusion system, 0.1 mg/mL of bovine serum albumin (BSA, Sigma-Aldrich, Budapest, Hungary) was also added into all bath solutions prior to the patch-clamp assay.
Whole-cell currents were recorded using the patch-clamp technique in voltage-clamp mode, following standard protocols. […] Micropipettes were made from GC150F-7.5 borosilicate capillaries (Harvard Apparatus Co., Holliston, MA, USA) using a Sutter P2000 laser puller with tip resistance generally ranging from 3–6 MΩ in the bath solution. Only recordings with a leak current at the holding potential (Vh) of <10% of the peak current at the test potential were included in the data analysis. All recordings were performed at room temperature (20–25 °C). Control and test solutions were perfused to the cells via a gravity-driven micro-perfusion system and AutoMate Perfusion Pencil Multi-Barrel Manifold Tip (AutoMate Scientific, Berkeley, CA, USA), with an approximate flow rate of 200 µL/min, and the excess amount of bath solution was continuously removed from the recording chamber using vacuum suction.
The duration of depolarization pulses was 15 ms for Kv1.3 and 50 ms for Kv1.1 and Kv1.5. However, for Kv1.2, 15–500 ms-long pulses were used to achieve the saturated peak current due to the variable activation kinetics of this channel. […] KCa2.2 and KCa3.1 currents were recorded by applying 150 ms-long voltage ramps to +50 mV from −120 mV every 10 s; the Vh was set to −85 mV.
Before analysis, all current traces were digitally filtered using three-point boxcar smoothing and were corrected for ohmic leakage, only if required. […] Data points in the concentration–response curve represent the mean RCF values of three to six individual cells, with error bars denoting the standard error of the mean (SEM). The data points for each concentration were fitted using the Hill equation: RCF = IC50^H/(IC50^H + [toxin]^H), where IC50 is the dissociation constant, H represents the Hill coefficient, and [toxin] is the concentration of the toxin.
To study the binding kinetics of Cvill toxins, the peak current during the application of toxin at time point t (It) was normalized to the peak current (I0) before the toxin exposure (Inorm = It/I0) and plotted as a function of time.

In a further experiment the test system is mKCa1.1 (BK or MaxiK). Format: cell-based, mice. The settings on record: 100 nM; ~3 min.
The mark [1] stands for this setting: read-out: inhibition of hKv1.3 current.

Each structure is given as a SMILES string. Where two headings read alike, the source gives them in different places. Positions of bridges follow the written chain, without caps; N, C: chain ends. Residues, ends and D or L forms follow the SMILES beside them.

Description for mKCa1.1 (BK or MaxiK): Therefore, we investigated the activity of Cvill6 and Cvill7 toxins on three different types of Ca^2+-activated K^+ channels: (1) hKCa2.2 (SK2), the small-conductance Ca^2+-activated channel; (2) hKCa3.1 (IKCa1, SK4), the intermediate-conductance Ca^2+-activated channels, mainly expressed in T lymphocytes; and (3) mKCa1.1 (BK or MaxiK), the large-conductance voltage- and Ca^2+- activated channel of mice. Appropriate depolarization protocols were applied to record the K^+ current through respective KCa channels as shown in the inset of each panel in Figure 6A–C. […] The normalized peak currents (see Section 2.4 or Section 5 for details) for individual cells (n = 5) were averaged at each time point and plotted as a function of time.
HEK 293 cells stably expressing mKCa1.1 1 (BKCa, Kcnma1 gene, generously provided by C. Beeton from Baylor College of Medicine, Houston, TX, USA) or hKv11.1 (hERG1, KCNH2 gene, gifted by H. Wulff from University of California, Davis, CA, USA) were utilized in this study.
Whole-cell currents were recorded using the patch-clamp technique in voltage-clamp mode, following standard protocols [73]. […]

In the case of `CC[C@H](C)[C@H](N)C(=O)N[C@@H](Cc1ccccc1)C(=O)N[C@H](C(=O)N[C@@H](CC(N)=O)C(=O)N[C@H](C(=O)N[C@@H](CCCCN)C(=O)N[C@H]1CSSC[C@@H]2NC(=O)[C@H](CCCCN)NC(=O)CNC(=O)CNC(=O)[C@H](C)NC(=O)[C@H](Cc3c[nH]cn3)NC(=O)[C@H](CCC(N)=O)NC(=O)CNC(=O)[C@H](Cc3ccccc3)NC(=O)[C@H](CCCNC(=N)N)NC(=O)[C@H](CC(=O)O)NC(=O)[C@H](CCCCN)NC(=O)[C@@H]3CSSC[C@@H](C(=O)N[C@@H](Cc4ccc(O)cc4)C(=O)N4CCC[C@H]4C(=O)O)NC(=O)[C@H](CCCCN)NC(=O)[C@H](CSSC[C@H](NC(=O)[C@H](CCC(N)=O)NC(=O)[C@H](CCC(N)=O)NC(=O)[C@@H]4CCCN4C(=O)[C@H](CC(C)C)NC(=O)[C@H](CC(=O)O)NC1=O)C(=O)N[C@@H](CC(C)C)C(=O)N[C@@H](CCCNC(=N)N)C(=O)N1CCC[C@H]1C(=O)N3)NC(=O)[C@H](CCCCN)NC(=O)CNC(=O)[C@H](CC(N)=O)NC(=O)[C@H]([C@@H](C)CC)NC2=O)C(C)C)[C@@H](C)CC` [Cvill6] (H-IFINVKCDLPQQCLRPCKDRFGQHAGGKCINGKCKCYP-OH; disulfide 7-29, 13-34, 17-36 (inferred); N-terminus and C-terminus assumed), on hKv1.3 (read-out: estimated IC50), the potency estimated from few doses was roughly 840 nM. In addition, the inhibition at 0.1 µM at hKv1.3 (read-out: inhibition of Kv1.3) was roughly 11%; at hKv1.3 (setting [1]), roughly 13%. Also, the “effect on KCa1.1 current” value in the experiment with mKCa1.1 (BK or MaxiK) is given as “Neither Cvill6 nor Cvill7 showed any effect”.

On to `CC[C@H](C)[C@H](NC(=O)[C@H](Cc1ccccc1)NC(=O)[C@@H](N)[C@@H](C)O)C(=O)N[C@@H](CC(N)=O)C(=O)N[C@H](C(=O)N[C@@H](CCCCN)C(=O)N[C@H]1CSSC[C@@H]2NC(=O)[C@H](CCCCN)NC(=O)CNC(=O)CNC(=O)[C@H](C)NC(=O)[C@H](Cc3c[nH]cn3)NC(=O)[C@@H]3CCCN3C(=O)CNC(=O)[C@H](Cc3ccc(O)cc3)NC(=O)[C@H](CC(C)C)NC(=O)[C@H](CC(=O)O)NC(=O)[C@H](CCCCN)NC(=O)[C@@H]3CSSC[C@@H](C(=O)N[C@@H](Cc4ccc(O)cc4)C(=O)N[C@@H](CC(N)=O)C(=O)N[C@@H](CC(N)=O)C(N)=O)NC(=O)[C@H](CCCCN)NC(=O)[C@H](CSSC[C@H](NC(=O)[C@H](CCC(N)=O)NC(=O)[C@H](CCCCN)NC(=O)[C@@H]4CCCN4C(=O)[C@H](CO)NC(=O)[C@H]([C@@H](C)O)NC1=O)C(=O)N[C@@H](CC(C)C)C(=O)N[C@@H](CCCCN)C(=O)N1CCC[C@H]1C(=O)N3)NC(=O)[C@H](CCCCN)NC(=O)CNC(=O)[C@H](CC(N)=O)NC(=O)[C@H](CCSC)NC2=O)C(C)C` [Cvill7] (H-TFINVKCTSPKQCLKPCKDLYGPHAGGKCMNGKCKCYNN-NH2; disulfide 7-29, 13-34, 17-36; N-terminus and C-terminus assumed), for which, at hKv1.3, the half-maximal inhibitory concentration (IC50) was found to be 7.2 ± 0.64 nM, binding was put at a Kd of 25 nM, the koff is 0.032 ± 0.0068 s⁻¹ and the kon stood at 1.3e+06 M⁻¹ s⁻¹. Besides, the “reversibility of Kv1.3 block” value at hKv1.3 (15 nM, then toxin-free solution) is “fully reversible with rapid association and dissociation kinetics”. For the same compound, the “equilibrium block of Kv1.3” value at hKv1.3 (15 nM, n = 3) turned out to be 67 ± 3%. In addition, the “τon (development of block)” value on hKv1.3 (Kv1.3, 15 nM, mean ± SEM, n = 3) came out at 20 ± 1.8 s. The “τon, representative fit” value on hKv1.3 (Kv1.3, 15 nM, representative fit (Figure S5B)) amounted to 22.6 s. Moreover, the “Hill coefficient (H)” value at hKv1.3 (Kv1.3, Hill equation fit of RCF values) is on record as 0.73. In addition, the “τoff (wash-out)” value on hKv1.3 (Kv1.3, after 15 nM, mean ± SEM, n = 3) is listed as 34 ± 6 s. Besides, on hKv1.3 (Kv1.3, after 15 nM, representative fit (Figure S5B)), the “τoff, representative fit” value is recorded as 34.5 s. On hKv1.3 (setting [1]), the inhibition at 0.1 µM was roughly 86%. For the same compound, the “effect on KCa1.1 current” value in the experiment with mKCa1.1 (BK or MaxiK) was “Neither Cvill6 nor Cvill7 showed any effect”.
